Reference: the SangsterLogP compilation

Q: Which logP does the source give for `CC(C)Nc1nc(N)[nH]c(=O)n1` here?
A: -0.08

Q: With `Nc1nc(N)nc(NC2CC2)n1` as the compound, how does the logP read?
A: 0.05

Q: For `CCNc1nc(N=[N+]=[N-])nc(NC(C)C)n1`, which logP is on record?
A: 2.57

Q: For `CCNc1nc(N)nc(=O)[nH]1`, which logP is on record?
A: -0.3

Q: Which logP does the source give for `CCNc1nc(NC(C)C)nc(=O)[nH]1` here?
A: 0.76

Q: Which logP does the source give for `Nc1nc(N)[nH]c(=O)n1` here?
A: -0.46

Q: With `CCC(C)Nc1nc(N)nc(Cl)n1` (centres undefined) as the compound, how does the logP read?
A: 1.78

Q: For `CCN(CC)c1nc(N)nc(Cl)n1`, which logP is on record?
A: 2.12

Q: For `COc1nc(NC(C)C)nc(NC(C)C)n1`, which logP is on record?
A: 2.6

Q: For `Cc1nnc(-c2ccccc2)c(=O)n1N`, which logP is on record?
A: 0.98

Q: For `CNc1nc(NC)nc(NC(C)C)n1`, which logP is on record?
A: 1.87

Q: With `Nc1nc(N)nc(Cl)n1` as the compound, how does the logP read?
A: 0.11

Q: Which logP does the source give for `O=c1[nH]c(=O)[nH]c(=O)[nH]1` here?
A: -0.47

Q: Which logP does the source give for `COc1nc(N)nc(NC(C)(C)C)n1` here?
A: 1.93

Q: With `CCNc1nc(N)nc(OC)n1` as the compound, how does the logP read?
A: 0.83

Q: For `Nc1nc(N)nc(N)n1`, which logP is on record?
A: -0.4

Q: With `CCNc1nc(NCC)[nH]c(=O)n1` as the compound, how does the logP read?
A: 0.35

Q: For `CCNc1nc(NC(C)(C)C)nc(=O)[nH]1`, which logP is on record?
A: 1.5

Q: With `CC(C)(C)Nc1nc(N)[nH]c(=O)n1` as the compound, how does the logP read?
A: 0.43
